Values of other authors as cited in patent US12434072B2, “Methods and systems for neural stimulation via visual, auditory and peripheral nerve stimulations” (Cognito Therapeutics, Inc., priority 2016, dated 2025).

How the values were obtained:
[1] = 70 kg adult
[2] = human clinical trials; low (tracer) doses

| Compound | Estimated absorbed radiation dose, Adrenals [1] [rad/mCi] | Estimated absorbed radiation dose, Brain [1] [rad/mCi] | Estimated absorbed radiation dose, Breasts [1] [rad/mCi] | Estimated absorbed radiation dose, Gallbladder Wall [1] [rad/mCi] | Estimated absorbed radiation dose, Heart Wall [1] [rad/mCi] | Estimated absorbed radiation dose, Kidneys [1] [rad/mCi] | Estimated absorbed radiation dose, Liver [1] [rad/mCi] | Estimated absorbed radiation dose, Lower Large Intestine Wall [1] [rad/mCi] | Estimated absorbed radiation dose, Lungs [1] [rad/mCi] | Estimated absorbed radiation dose, Muscle [1] [rad/mCi] | Estimated absorbed radiation dose, Ovaries [1] [rad/mCi] | Estimated absorbed radiation dose, Pancreas [1] [rad/mCi] | Estimated absorbed radiation dose, Red marrow [1] [rad/mCi] | Estimated absorbed radiation dose, Skin [1] [rad/mCi] | Estimated absorbed radiation dose, Small Intestine [1] [rad/mCi] | Estimated absorbed radiation dose, Spleen [1] [rad/mCi] | Estimated absorbed radiation dose, Testes [1] [rad/mCi] | Estimated absorbed radiation dose, Thymus [1] [rad/mCi] | Estimated absorbed radiation dose, Thyroid [1] [rad/mCi] | Estimated absorbed radiation dose, Total Body [1] [rad/mCi] | further results |
| --- | --- | --- | --- | --- | --- | --- | --- | --- | --- | --- | --- | --- | --- | --- | --- | --- | --- | --- | --- | --- | --- |
| CNc1ccc(/C=C/c2ccc(OCCOCCOCC[18F])nc2)cc1 [18F-AV-45] | 0.05 | 0.037 | 0.023 | 0.529 | 0.048 | 0.048 | 0.238 | 0.103 | 0.032 | 0.032 | 0.065 | 0.053 | 0.053 | 0.022 | 0.242 | 0.033 | 0.025 | 0.027 | 0.025 | 0.043 | Effective Dose ([1]; Effective Dose): 0.069 rad/mCi; Estimated absorbed radiation dose, Upper Large Intestine Wall [1]: 0.276 rad/mCi; Estimated absorbed radiation dose, Urinary bladder wall [1]: 0.1 rad/mCi; Estimated absorbed radiation dose, Uterus [1]: 0.058 rad/mCi; Most common adverse events [2]: headache, injection site reactions (injection site rash, extravasation, hemorrhage, irritation and puncture site hematoma), musculoskeletal pain, fatigue, and nausea |
| OC[C@H]1O[C@@H](O)[C@H]([18F])[C@@H](O)[C@@H]1O [FDG] | 0.048 | 0.07 | 0.034 | 0.049 | 0.22 | 0.074 | 0.058 | 0.051 | 0.064 | 0.039 | 0.053 | 0.096 | 0.047 | 0.03 | 0.047 | 0.14 | 0.041 | 0.044 | 0.039 | 0.043 | Critical organ for radiation dose [1]: urinary bladder wall, followed by heart, spleen and pancreas; Estimated absorbed radiation dose, Upper Large Intestine Wall [1]: 0.046 rad/mCi; Estimated absorbed radiation dose, Urinary bladder wall [1]: 0.32 rad/mCi; Estimated absorbed radiation dose, Uterus [1]: 0.062 rad/mCi |
